Legend:
Format in all cases: cell-based, human fecal cultures
[1] = system: Firmicutes, Proteobacteria, and/or Actinobacteria; assay: Ex vivo fecal slurry assay, 16S rRNA sequencing (Example 11); conditions: 1% w/v fecal slurry from 12 subjects, glycan 0.5% w/v, 37° C., 18 hours, anaerobically; FIGS. 4-6
Source text: (§1) An ex vivo assay was designed to determine if glycans can be used to modulate a complex community of microorganisms and if the glycans produced consistent effects across communities obtained from multiple (twelve) subjects. Fecal samples and slurries were handled in an anaerobic chamber (AS-580, Anaerobe Systems) featuring a palladium catalyst. Glycans ara100, gal100, glu60man40, glu100, glu50gal50, gal33man33ara33, man75gal25, glu33gal33man34, glu33gal33Ara33, man100, man52glu29gal19 and commercially available glycans lactulose (Alfa Aesar) and FOS (Nutraflora FOS; NOW Foods, Bloomingdale Ill.) were included in the study. The fecal sample donations obtained from 12 subjects were stored at −80° C. To prepare working stocks the fecal samples were transferred into the anaerobic chamber and allowed to thaw.
Microbial beta-glucuronidase, found in Proteobacteria, Firmicutes, and Actinobacteria, is known to modify SN-38 glucuronide, which is used to treat cancer (e.g., colorectal cancer) and has the side-effect of diarrhea, by removing a sugar moiety, creating a compound that is toxic to intestinal epithelial cells. Decreasing the levels or activity of microbial beta-glucuronidase expressing microbes may increase the effectiveness of SN-38 glucuronidine treatment and/or decrease/prevent side effects.

[2] = system: Actinobacteria and/or Coriobacteriaceae/Gordonibacter; assay: Ex vivo fecal slurry assay, 16S rRNA sequencing (Example 13); conditions: 1% w/v fecal slurry from 12 subjects, glycan 0.5% w/v, 37° C., 18 hours, anaerobically; FIGS. 6 and 8
Source text: as §1
A microbial enzyme found in Actinobacteria and Coriobacteriaceae/Gordonibacter is known to hydrolyze ellagitannin to ellagic acid.

[3] = system: Enterococcaceae/Enterococcus and/or Bifidobacteriaceae/Bifidobacterium; assay: Ex vivo fecal slurry assay, 16S rRNA sequencing (Example 15); conditions: 1% w/v fecal slurry from 12 subjects, glycan 0.5% w/v, 37° C., 18 hours, anaerobically; FIGS. 3 and 10
Source text: as §1
A microbial enzyme, found in Enterococcus faecium, Lactobacillus mucosae, Bifidobacterium sp., and Eggerthella sp., is known to metabolize daidzin into equol, which binds estrogen receptor-beta and may be associated with lower risk/incidence of breast cancer. Increasing the levels or activity of microbes expressing said microbial enzyme may increase the have a preventative effect on cancer, e.g., breast cancer, or treat cancer, e.g., breast cancer.

[4] = system: Enterobacteriaceae/Escherichia/Shigella microbes; assay: Ex vivo fecal slurry assay, 16S rRNA sequencing (Example 17); conditions: 1% w/v fecal slurry from 12 subjects, glycan 0.5% w/v, 37° C., 18 hours, anaerobically; FIG. 14
Source text: as §1
Microbial beta-glucuronidase, found in bacteria that carry the uidA gene, e.g., Escherichia coli, is known to reactivate glucuronidated substrate, e.g., heterocyclic amines, (detoxified by hepatic glucuronidation), by removing the conjugate, generating a toxic compound. Decreasing the levels or activity of microbial beta-glucuronidase expressing microbes may decrease the generation of toxic, e.g., carcinogenic, compounds, which may have a preventative effect on cancer.

[5] = system: Enterococcaceae/Enterococcus and/or Enterobacteriaceae/Escherichia/Shigella microbes; assay: Ex vivo fecal slurry assay, 16S rRNA sequencing (Example 18); conditions: 1% w/v fecal slurry from 12 subjects, glycan 0.5% w/v, 37° C., 18 hours, anaerobically; FIGS. 3 and 14
Source text: as §1
A microbial enzyme, found in Enterococcus, Clostridium, Corynebacterium, Campylobacter, and Escherichia, is known to convert sweetener to a compound that can be toxic, e.g., converts cyclamate to cyclohexylamine, which can be toxic. Decreasing the levels or activity of microbes expressing said microbial enzyme may decrease the generation of toxic compounds.

[6] = system: Enterobacteriales/Enterobacteriaceae microbes; assay: Ex vivo fecal slurry assay, 16S rRNA sequencing (Example 19); conditions: 1% w/v fecal slurry from 12 subjects, glycan 0.5% w/v, 37° C., 18 hours, anaerobically; FIG. 15
Source text: as §1
Microbial phosphorylase, e.g., thymidine phosphorylase or uridine phosphorylase, found in Enterobacteria, e.g., K. pneumoniae, is known to deglycosylate sorivudine, inactivating it. Sorivudine is used to treat viral infection (e.g. herpes simplex virus 1 and varicella-zoster virus). Decreasing the levels or activity of microbes expressing said microbial phosphorylase may decrease the inactivation of sorivudine and increase the effectiveness of sorivudine treatment against viral infections.

[7] = system: Ruminococcaceae/Ruminococcus microbes; assay: Ex vivo fecal slurry assay, 16S rRNA sequencing (Example 21); conditions: 1% w/v fecal slurry from 12 subjects, glycan 0.5% w/v, 37° C., 18 hours, anaerobically; FIG. 17
Source text: as §1
A microbial enzyme found in Bacteroidetes (e.g., Bacteroidales) and mucolytic bacteria such as Ruminococcus gnavus, is known to cause metabolic and inflammatory response to emulsifying agents. Decreasing the levels or activity of microbes expressing said microbial enzyme may increase the effectiveness of emulsifying agents, e.g, carboxymethylcellulose or polysorbate-80, e.g., to decrease risk/incidence of metabolic syndrome and/or inflammation.

OC[C@H]1O[C@@H](O[C@@H]2[C@@H](CO)OC(O)(CO)[C@H]2O)[C@H](O)[C@@H](O)[C@H]1O (mixture of isomers) [lactulose]
levels of Firmicutes, Proteobacteria, and/or Actinobacteria [1]: appeared to decrease
levels of Actinobacteria and/or Coriobacteriaceae/Gordonibacter [2]: appeared to decrease
levels of Enterococcaceae/Enterococcus and/or Bifidobacteriaceae/Bifidobacterium [3]: appeared to increase
levels of Enterobacteriaceae/Escherichia/Shigella microbes [4]: appeared to decrease
levels of Enterococcaceae/Enterococcus and/or Enterobacteriaceae/Escherichia/Shigella microbes [5]: appeared to decrease
levels of Enterobacteriales/Enterobacteriaceae microbes [6]: appeared to decrease
levels of Ruminococcaceae/Ruminococcus microbes [7]: appeared to decrease

From patent US20230123695A1, “GLYCAN COMPOSITIONS AND METHODS OF USE” (DSM Nutritional Products, LLC, priority 2018, published 2023)
